In US5968910A, “Compositions containing two or three inhibitors of different HIV reverse transcriptases” (priority 1994, dated 1999):
Values after ≈ are worked out from the molar mass of the structure shown. Like-named read-outs stand apart in the source and are kept apart here.

Legend:
[1] = test system: HIV-1(IIIB); assay: Knock-out concentrations: breakthrough of HIV-1(IIIB)-induced cytopathicity in CEM cell cultures; format: cell-based; conditions: for activity at 0.1 µg/mL / activity at 0.5 µg/mL / activity at 2.5 µg/mL: Human immunodeficiency virus 1, IIIB, CCRF-CEM, read-out: HIV-1-induced cytopathicity in cell culture; for activity at 0.1 µg/mL: 0.1 μg/ml; for activity at 0.5 µg/mL: 0.5 μg/ml; for activity at 2.5 µg/mL: 2.5 μg/ml
How it was run: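 CEM cells in RPMI 1640 with 10% FBS infected with HIV-1(IIIB) at ~1000× CCID50, subcultured every 3–4 days into fresh uninfected cells with drug held constant for 10 subcultivations (35 days), then ≥5 drug-free passages. Breakthrough scored by syncytium formation. Combinations used the two lowest single-drug starting concentrations.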

[2] = test system: HIV-1(IIIB) (WT); assay: microbe, parasite or virus in culture; format: cell-based; conditions: Human immunodeficiency virus 1, IIIB, CCRF-CEM
How it was run: (§1)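 CEM cells at 250,000 cells/ml were infected with HIV-1 at 100 CCID50 per ml, then mixed with serial dilutions of test compound. After 4 days at 37° C., cultures were scored for syncytium formation.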

[3] = test system: HIV-1/TIBO R82913 (103-Asn); assay: Sensitivity of mutant HIV-1 strain in CEM cell cultures; format: cell-based; conditions: Human immunodeficiency virus 1, CCRF-CEM; CEM cells, Table 1; read-out: 50% Effective Concentration
How it was run: as §1

[4] = test system: HIV-1/V(0.1) 101-Ile + 141-Glu; assay: as above; format: cell-based; conditions: Human immunodeficiency virus 1, CCRF-CEM; Table 5; read-out: EC50
How it was run: as §1

[5] = test system: HIV-1/II(0.1) 100-Ile; assay: as above; format: cell-based; conditions: Human immunodeficiency virus 1, CCRF-CEM; Table 5; read-out: EC50
How it was run: as §1

[6] = test system: HIV-1/I(0.1) 103-Asn; assay: as above; format: cell-based; conditions: Human immunodeficiency virus 1, CCRF-CEM; Table 5; read-out: EC50
How it was run: as §1

[7] = test system: HIV-1/TSAO-m^3 T (138-Lys); assay: as above; format: cell-based; conditions: Human immunodeficiency virus 1, CCRF-CEM; CEM cells, Table 1; read-out: 50% Effective Concentration
How it was run: as §1

[8] = test system: HIV-1/TIBO R82150 (100-Ile); assay: as above; format: cell-based; conditions: Human immunodeficiency virus 1, CCRF-CEM; CEM cells, Table 1; read-out: 50% Effective Concentration
How it was run: as §1

[9] = test system: HIV-1/Nev (106-Ala); assay: as above; format: cell-based; conditions: Human immunodeficiency virus 1, CCRF-CEM; CEM cells, Table 1; read-out: 50% Effective Concentration
How it was run: as §1

[10] = test system: HIV-1/V(0.5) 103-Asn; assay: as above; format: cell-based; conditions: Human immunodeficiency virus 1, CCRF-CEM; Table 5; read-out: EC50
How it was run: as §1

[11] = test system: HIV-1/Pyr (181-Cys); assay: as above; format: cell-based; conditions: Human immunodeficiency virus 1, CCRF-CEM; CEM cells, Table 1; read-out: 50% Effective Concentration
How it was run: as §1

[12] = test system: HIV-1/IV(0.1) 103-Thr; assay: as above; format: cell-based; conditions: Human immunodeficiency virus 1, CCRF-CEM; Table 5; read-out: EC50
How it was run: as §1

[13] = test system: HIV-1/III(0.1) 103-Asn; assay: as above; format: cell-based; conditions: Human immunodeficiency virus 1, CCRF-CEM; Table 5; read-out: EC50
How it was run: as §1

[14] = biological target: HIV-1 RT (WT) (Human immunodeficiency virus type 1 group M subtype B, UniProt P03366); assay: biochemical
How it was run: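 Recombinant HIV-1 RT incubated 30 min at 37° C with poly(C).oligo(dG) (0.1 mM) and [³H]dGTP (2.95 μM) in Tris pH 7.8 with 5 mM MgCl2, 150 mM KCl, DTT, glutathione, Triton X-100; 5-fold compound dilutions. Acid-insoluble radioactivity counted after TCA/pyrophosphate precipitation.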

[15] = 936 h, day 39 post infection, compound absent from day 35
[16] = 1008 h, day 42 post infection, compound absent from day 35
[17] = 1104 h, day 46 post infection, compound absent from day 35
[18] = 1176 h, day 49 post infection, compound absent from day 35
[19] = 1272 h, day 53 post infection, compound absent from day 35

## Cc1occc1C(=S)Nc1ccc(Cl)c(C(=O)OC2CCCCC2)c1 [Compound III]
[1]
  prevention of virus breakthrough, fold more efficient than BHAP: at least 5 fold
  prevention of virus breakthrough, fold more efficient than nevirapine: ≥ 25 fold
[1]; 96 h, day 4 post infection
  activity at 0.1 µg/mL: 0%
  activity at 0.5 µg/mL: 0%
  activity at 2.5 µg/mL: 0%
[1]; 192 h, day 8 post infection
  activity at 0.1 µg/mL: 0%
  activity at 0.5 µg/mL: 0%
  activity at 2.5 µg/mL: 0%
[1]; 264 h, day 11 post infection
  activity at 0.1 µg/mL: 0%
  activity at 0.5 µg/mL: 0%
  activity at 2.5 µg/mL: 0%
[1]; 336 h, day 14 post infection
  activity at 0.1 µg/mL: 6.2%
  activity at 0.5 µg/mL: 0%
  activity at 2.5 µg/mL: 0%
[1]; 408 h, day 17 post infection
  activity at 0.1 µg/mL: 50%
  activity at 0.5 µg/mL: 0%
  activity at 2.5 µg/mL: 0%
[1]; 504 h, day 21 post infection
  activity at 0.1 µg/mL: 100%
  activity at 0.5 µg/mL: 0%
  activity at 2.5 µg/mL: 0%
[1]; 600 h, day 25 post infection
  activity at 0.1 µg/mL: 100%
  activity at 0.5 µg/mL: 0%
  activity at 2.5 µg/mL: 0%
[1]; 672 h, day 28 post infection
  activity at 0.1 µg/mL: 100%
  activity at 0.5 µg/mL: 0%
  activity at 2.5 µg/mL: 0%
[1]; 768 h, day 32 post infection
  activity at 0.1 µg/mL: 100%
  activity at 0.5 µg/mL: 0%
  activity at 2.5 µg/mL: 0%
[1]; 840 h, day 35 post infection
  activity at 0.1 µg/mL: 100%
  activity at 0.5 µg/mL: 0%
  activity at 2.5 µg/mL: 0%
[1]; [15]
  activity at 0.1 µg/mL: 100%
  activity at 0.5 µg/mL: 0%
  activity at 2.5 µg/mL: 0%
[1]; [16]
  activity at 0.1 µg/mL: 100%
  activity at 0.5 µg/mL: 0%
  activity at 2.5 µg/mL: 0%
[1]; [17]
  activity at 0.1 µg/mL: 100%
  activity at 0.5 µg/mL: 0%
  activity at 2.5 µg/mL: 0%
[1]; [18]
  activity at 0.1 µg/mL: 100%
  activity at 0.5 µg/mL: 0%
  activity at 2.5 µg/mL: 0%
[1]; [19]
  activity at 0.1 µg/mL: 100%
  activity at 0.5 µg/mL: 0%
  activity at 2.5 µg/mL: 0%
[1]; tested at 0.1, 0.5 and 2.5 μg/ml, 35 days
  concentration at which virus emerged (virus breakthrough): 0.1 µg/mL
[2]; CEM cells, Table 1, read-out: 50% Effective Concentration
  EC50: 0.004 µg/mL (≈ 0.0106 µM)
[2]; HIV-1 (III8), Table 5, read-out: EC50
  EC50: 0.004 µg/mL (≈ 0.0106 µM)
[2]; range stated for Compounds I-V together, read-out: 50% inhibitory concentration, HIV-1(IIIB) replication in CEM cells
  IC50: 0.004 to 0.05 µg/mL (≈ 0.0106 to 0.132 µM)
[3]
  EC50: 0.7 µg/mL (≈ 1.85 µM)
[4]
  EC50: 0.05 µg/mL (≈ 0.132 µM)
[5]
  EC50: 0.87 µg/mL (≈ 2.3 µM)
[6]
  EC50: 0.3 µg/mL (≈ 0.794 µM)
[7]
  EC50: 0.035 µg/mL (≈ 0.0926 µM)
[8]
  EC50: 0.17 µg/mL (≈ 0.45 µM)
[9]
  EC50: 0.057 µg/mL (≈ 0.151 µM)
[10]
  EC50: 0.85 µg/mL (≈ 2.25 µM)
[11]
  EC50: 0.07 µg/mL (≈ 0.185 µM)
[12]
  EC50: 1.1 µg/mL (≈ 2.91 µM)
[13]
  EC50: 0.16 µg/mL (≈ 0.423 µM)
[14]; range stated for the compounds together, poly(C).oligo(dG), 2.95 μM [2,8-3H]dGTP, read-out: IC50 on recombinant HIV-1 RT
  IC50: 47.6 to 204 nM
[14]; substrate [2,8-3H]dGTP 2.95 μM, template poly(rC)oligo(dG), read-out: IC50, anti-HIV-1 RT (WT) activity (converted)
  IC50: 146 nM
